Results taken from US12612380B2, “Non-lysosomal glucosylceramidase inhibitors and uses thereof” (ALECTOS THERAPEUTICS INC., priority 2019, dated 2026).

Biological target: T1, GBA2 (Homo sapiens, UniProt Q9HCG7)
T1 sequence (Q9HCG7 1-927): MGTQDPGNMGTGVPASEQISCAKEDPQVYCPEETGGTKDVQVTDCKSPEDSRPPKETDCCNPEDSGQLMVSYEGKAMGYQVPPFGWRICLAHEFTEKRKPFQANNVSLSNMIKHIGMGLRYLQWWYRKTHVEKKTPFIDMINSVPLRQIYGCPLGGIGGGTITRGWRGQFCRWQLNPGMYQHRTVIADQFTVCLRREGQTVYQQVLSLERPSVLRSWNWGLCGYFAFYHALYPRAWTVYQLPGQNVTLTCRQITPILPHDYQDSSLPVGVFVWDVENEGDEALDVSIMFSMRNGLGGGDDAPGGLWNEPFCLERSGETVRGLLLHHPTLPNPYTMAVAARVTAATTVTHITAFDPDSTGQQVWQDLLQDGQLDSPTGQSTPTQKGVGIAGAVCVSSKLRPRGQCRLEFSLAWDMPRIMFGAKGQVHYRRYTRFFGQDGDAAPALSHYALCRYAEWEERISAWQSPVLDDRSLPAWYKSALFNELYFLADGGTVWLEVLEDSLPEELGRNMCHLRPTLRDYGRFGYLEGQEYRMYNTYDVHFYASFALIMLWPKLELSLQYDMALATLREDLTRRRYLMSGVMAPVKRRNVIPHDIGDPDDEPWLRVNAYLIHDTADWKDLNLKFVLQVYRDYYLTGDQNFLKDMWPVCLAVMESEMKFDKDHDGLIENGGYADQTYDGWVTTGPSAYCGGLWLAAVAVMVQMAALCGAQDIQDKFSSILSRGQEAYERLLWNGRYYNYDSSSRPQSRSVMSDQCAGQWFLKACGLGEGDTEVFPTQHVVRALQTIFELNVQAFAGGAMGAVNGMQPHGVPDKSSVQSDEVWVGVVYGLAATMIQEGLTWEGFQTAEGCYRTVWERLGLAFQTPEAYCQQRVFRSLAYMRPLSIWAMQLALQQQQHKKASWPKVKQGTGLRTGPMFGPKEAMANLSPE
Test: Determination of IC50 values for inhibition of GBA2 in cell lysate
Format: biochemical
Set-up: host or cells: HEK293T (lentiviral transduction, puromycin selection); used as cellular homogenate
Settings: not given
Text: Assay for Determination of IC50 Values for Inhibition of GBA2 in Cell Lysate
Stable GBA2-expressing HEK293T cells were generated as follows. The PCR-amplified human GBA2 (GBA2 nucleotide accession number BC011363) using the following primers: Sense 5′---CGCAAATGGGCGGTAGGCGTG (SEQ ID NO:2)---3′ and antisense 5′---TAGTCAGCCATGGGGCGGAGA (SEQ ID NO:3)---3′) was cloned into pLenti-GIII-CMV by ABM Inc. The correctness of the construct was verified by sequencing. Lentivirus particles containing GBA2 in the pLenti-GIII-CMV plasmid were prepared using a third Generation Virus Packaging Mix (ABM cat #LV053-G074) in HEK293T cells and supplied as a virus particle suspension. The virus suspension was used for infection of HEK293T cells. Cell populations stably expressing human GBA2 were selected using puromycin for several weeks as determined by activity assays and western blot.
Various concentrations of test compounds were prepared in DMSO and then diluted into buffer consisting of 100 mM citric acid, 200 mM disodium phosphate with 1% v/v C10E6, pH 5.5. Cellular homogenates (0.25 mg/mL) of the stable HEK293T-overexpressing GBA2 cell line were preincubated for 10 min on ice with an inhibitor of GCase (20 μM (6R,7R,8S)-8-ethyl-4-azaspiro[2.5]octane-6,7-diol). The reaction solution consisted of 20 μL of 750 μM 4-methylumbelliferone-β-D glucopyranoside in 5% DMSO in the same buffer, 20 μL of GBA2-cellular homogenate pre-treated with (6R,7R,8S)-8-ethyl-4-azaspiro[2.5]octane-6,7-diol and 20 μL of various concentrations of test compound in 10% DMSO in the same buffer. The final concentrations in the reaction were 0.083 mg/mL GBA2-cellular homogenate, 250 μM 4-methylumbelliferone-β-D glucopyranoside, and various concentrations of inhibitor. The inhibitor and GBA2-cellular homogenate were preincubated together for 5 min at 37° C. The reaction was initiated by addition of substrate and allowed to proceed for 20 min at 37° C. to assess GBA2 activity. Reactions were stopped by the addition of an equal volume (60 μL) of 0.5 M NaOH, 0.3 M glycine, pH 10.5. Fluorescence was measured on a Biotek Synergy H4 plate reader at wavelengths of 365 nm for excitation and 450 nm for emission. Incubations without added enzyme or added inhibitors were used to define no enzyme activity and maximal enzyme activity, respectively. IC50 values were determined by fitting the data to a log[inhibitor concentration] versus response curve using GraphPad Prism. IC50 values were calculated as the concentration of inhibitor required to inhibit GBA2 activity by 50%.

Compound | IC50 [nM]
C[C@@H]1[C@@H](O)[C@H](O)[C@@H](O)CN1CCc1ccc(OC2CCOCC2)cc1 [Example 63, (2R,3R,4R,5S)-2-methyl-1-(4-((tetrahydro-2H-pyran-4-yl)oxy)phenethyl)piperidine-3,4,5-triol] | < 100
C[C@@H]1[C@@H](O)[C@H](O)[C@@H](O)CN1CCc1ccc(OCC2CCOC2)cc1 (stereo partly drawn) [Example 65, (2R,3R,4R,5S)-2-methyl-1-(4-((tetrahydrofuran-3-yl)methoxy)phenethyl)piperidine-3,4,5-triol] | < 100
C[C@@H]1[C@@H](O)[C@H](O)[C@@H](O)CN1CCc1ccc2c(c1)OC(F)(F)O2 [Example 72, (2R,3R,4R,5S)-1-(2-(2,2-difluorobenzo[d][1,3]dioxol-5-yl)ethyl)-2-methylpiperidine-3,4,5-triol] | < 100
C[C@@H]1[C@@H](O)[C@H](O)[C@@H](O)CN1CCc1cccs1 [Example 74, (2R,3R,4R,5S)-2-methyl-1-(2-(thiophen-2-yl)ethyl)piperidine-3,4,5-triol] | 100 to 1000
C[C@@H]1[C@@H](O)[C@H](O)[C@@H](O)CN1CCc1ccsc1 [Example 75, (2R,3R,4R,5S)-2-methyl-1-(2-(thiophen-3-yl)ethyl)piperidine-3,4,5-triol] | 100 to 1000

Same assay, conditions: cellular homogenate of HEK293T cells overexpressing human GBA2, 250 μM 4-methylumbelliferone-β-D glucopyranoside, pH 5.5, 37° C., GCase inhibitor present; read-out: GBA2 IC50

IC50 [nM] | Compound
100 to 1000 | C[C@@H]1[C@@H](O)[C@H](O)[C@@H](O)CN1C[C@H](C)c1ccccc1 [Example 66, (2R,3R,4R,5S)-2-methyl-1-((R)-2-phenylpropyl)piperidine-3,4,5-triol]
100 to 1000 | C[C@H](CN1C[C@H](O)[C@@H](O)[C@H](O)[C@H]1C)c1ccccc1 [Example 67, (2R,3R,4R,5S)-2-methyl-1-((S)-2-phenylpropyl)piperidine-3,4,5-triol]
< 100 | C[C@@H]1[C@@H](O)[C@H](O)[C@@H](O)CN1CCc1ccc(-c2ccccc2)cc1 [Example 68, (2R,3R,4R,5S)-1-(2-([1,1′-biphenyl]-4-yl)ethyl)-2-methylpiperidine-3,4,5-triol]
1000 to 25000 | C[C@@H]1[C@@H](O)[C@H](O)[C@@H](O)CN1CCc1ccccn1 [Example 76, (2R,3R,4R,5S)-2-methyl-1-(2-(pyridin-2-yl)ethyl)piperidine-3,4,5-triol]
< 100 | C[C@@H]1[C@@H](O)[C@H](O)[C@@H](O)CN1CCCc1ccccc1 [Example 77, (2R,3R,4R,5S)-2-methyl-1-(3-phenylpropyl)piperidine-3,4,5-triol]
< 100 | C[C@@H]1[C@@H](O)[C@H](O)[C@@H](O)CN1CCCc1ccccc1F [Example 78, (2R,3R,4R,5S)-1-(3-(2-fluorophenyl)propyl)-2-methylpiperidine-3,4,5-triol]
100 to 1000 | C[C@@H]1[C@@H](O)[C@H](O)[C@@H](O)CN1CC1CCN(c2ccccc2)CC1 [Example 82, (2R,3R,4R,5S)-2-methyl-1-((1-phenylpiperidin-4-yl)methyl)piperidine-3,4,5-triol]
< 100 | C[C@@H]1[C@@H](O)[C@H](O)[C@@H](O)CN1CC1CCN(c2ccccc2F)CC1 [Example 83, (2R,3R,4R,5S)-1-((1-(2-fluorophenyl)piperidin-4-yl)methyl)-2-methylpiperidine-3,4,5-triol]
< 100 | C[C@@H]1[C@@H](O)[C@H](O)[C@@H](O)CN1CC1CCN(c2cccc(F)c2)CC1 [Example 84, (2R,3R,4R,5S)-1-((1-(3-fluorophenyl)piperidin-4-yl)methyl)-2-methylpiperidine-3,4,5-triol]
< 100 | C[C@@H]1[C@@H](O)[C@H](O)[C@@H](O)CN1CC1CCN(c2ccc(C(F)(F)F)cc2)CC1 [Example 86, (2R,3R,4R,5S)-2-methyl-1-((1-(4-(trifluoromethyl)phenyl)piperidin-4-yl)methyl)piperidine-3,4,5-triol]
1000 to 25000 | C[C@@H]1[C@@H](O)[C@H](O)[C@@H](O)CN1CC1(C)CCN(c2ccccc2)CC1 [Example 87, (2R,3R,4R,5S)-2-methyl-1-((4-methyl-1-phenylpiperidin-4-yl)methyl)piperidine-3,4,5-triol]
100 to 1000 | C[C@@H]1[C@@H](O)[C@H](O)[C@@H](O)CN1CC1(F)CCN(c2ccccc2)CC1 [Example 88, (2R,3R,4R,5S)-1-((4-fluoro-1-phenylpiperidin-4-yl)methyl)-2-methylpiperidine-3,4,5-triol]
< 100 | C[C@@H]1[C@@H](O)[C@H](O)[C@@H](O)CN1CCC1CCN(c2ccccc2)CC1 [Example 89, (2R,3R,4R,5S)-2-methyl-1-(2-(1-phenylpiperidin-4-yl)ethyl)piperidine-3,4,5-triol]
1000 to 25000 | C[C@@H]1[C@@H](O)[C@H](O)[C@@H](O)CN1CC1CCN(c2cccnc2)CC1 [Example 90, (2R,3R,4R,5S)-2-methyl-1-((1-(pyridin-3-yl)piperidin-4-yl)methyl)piperidine-3,4,5-triol]
100 to 1000 | C[C@@H]1[C@@H](O)[C@H](O)[C@@H](O)CN1CC1CCN(CC(F)(F)F)CC1 [Example 91, (2R,3R,4R,5S)-2-methyl-1-((1-(2,2,2-trifluoroethyl)piperidin-4-yl)methyl)piperidine-3,4,5-triol]

The next lines start with the compound.

Compound | IC50 [nM]
C[C@@H]1[C@@H](O)[C@H](O)[C@@H](O)CN1CCc1ccc(Oc2ccccc2)cc1 [Example 64, (2R,3R,4R,5S)-2-methyl-1-(4-phenoxyphenethyl)piperidine-3,4,5-triol] | < 100
C[C@@H]1[C@@H](O)[C@H](O)[C@@H](O)CN1CCc1c(F)cc(-c2ccccc2)cc1F [Example 69, (2R,3R,4R,5S)-1-(2-(3,5-difluoro-[1,1′-biphenyl]-4-yl)ethyl)-2-methylpiperidine-3,4,5-triol] | < 100
C[C@@H]1[C@@H](O)[C@H](O)[C@@H](O)CN1CCCc1ccc(F)cc1 [Example 79, (2R,3R,4R,5S)-1-(3-(4-fluorophenyl)propyl)-2-methylpiperidine-3,4,5-triol] | < 100
C[C@@H]1[C@@H](O)[C@H](O)[C@@H](O)CN1CCCc1cccs1 [Example 80, (2R,3R,4R,5S)-2-methyl-1-(3-(thiophen-2-yl)propyl)piperidine-3,4,5-triol] | < 100
C[C@@H]1[C@@H](O)[C@H](O)[C@@H](O)CN1CCCc1ccsc1 [Example 81, (2R,3R,4R,5S)-2-methyl-1-(3-(thiophen-3-yl)propyl)piperidine-3,4,5-triol] | < 100
CC(C)C(=O)N1CCC(CN2C[C@H](O)[C@@H](O)[C@H](O)[C@H]2C)CC1 [Example 92, 2-methyl-1-(4-(((2R,3R,4R,5S)-3,4,5-trihydroxy-2-methylpiperidin-1-yl)methyl)piperidin-1-yl)propan-1-one] | 1000 to 25000
